In one data set the target is T1, ENT1 (Homo sapiens, UniProt Q99808).
T1 construct: endogenous in cells; host or cells: CD19-positive cells (B cells) in whole blood from healthy donors
T1 sequence (Q99808 1-456): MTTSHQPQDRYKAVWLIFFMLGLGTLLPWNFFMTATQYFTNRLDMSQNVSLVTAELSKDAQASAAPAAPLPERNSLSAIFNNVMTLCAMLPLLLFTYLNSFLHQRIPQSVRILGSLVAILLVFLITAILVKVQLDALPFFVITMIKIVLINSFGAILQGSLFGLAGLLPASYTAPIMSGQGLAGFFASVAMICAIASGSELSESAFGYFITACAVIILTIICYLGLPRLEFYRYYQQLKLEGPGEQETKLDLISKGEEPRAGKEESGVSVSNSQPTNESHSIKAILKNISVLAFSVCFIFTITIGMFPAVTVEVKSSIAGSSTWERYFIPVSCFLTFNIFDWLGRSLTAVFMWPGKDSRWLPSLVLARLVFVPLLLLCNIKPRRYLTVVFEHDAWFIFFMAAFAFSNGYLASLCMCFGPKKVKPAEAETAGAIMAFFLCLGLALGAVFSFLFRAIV
Briefly: ENT1 activity: intracellular uptake of 5-Ethynyl-Uridine (5EU) in whole blood, CD19 positive cells, flow cytometry. The data set is classed as cell-based. As to conditions: 5EU 60 min at 37° C. How it is done: Example 20-ENT1 Activity of Crystalline Form 2 Compound 1 di(hydrogen sulfate) trihydrate compared to Compound 1 (free base)-Initial and after Six-Month Storage: (1) Initial time: Whole blood from 8 healthy donors was incubated with 5-Ethynyl-Uridine (5EU, CAS #: 69075-42-9, Jena Bioscience) for 60 min at 37° C., in the absence or presence of freshly suspended 1 μM Compound 1 (free base) or 1 μM Form 2 Compound 1 di(hydrogen sulfate) trihydrate. Intracellular uptake of 5EU through ENT1 transporters was assessed by standard flow cytometry and ENT1 activity was determined.
In FIG. 101, the data are expressed as % of ENT1 activity in untreated CD19 cells, arbitrary set at 100%, and are the means±SD of three independent experiments. Statistical analysis was performed using one-way analysis of variance (ANOVA) followed by Tukey's post hoc analysis with Prism 10.1.2 software (GraphPad Software). *: p<0.0001 vs. untreated B cells; ns: non-significant.
(2) Six months: Compound stability was evaluated on suspended solutions of Compound 1 (free base) or Form 2 Compound 1 di(hydrogen sulfate) trihydrate that were stored at −20° C. for 6 months. On the day of the experiment, whole blood from 3 healthy donors was incubated with 5-Ethynyl-Uridine (5EU, CAS #: 69075-42-9, Jena Bioscience) for 60 min at 37° C., in the absence or presence of either 1 μM Compound 1 (free base) or 1 μM Form 2 Compound 1 di(hydrogen sulfate) trihydrate of 6-month-old solutions. Intracellular uptake of 5EU through ENT1 transporters was assessed by standard flow cytometry and ENT1 activity was determined.
In FIG. 102, the data are expressed as % of ENT1 activity in untreated CD19 cells, arbitrary set at 100%, and are the means±SD. Statistical analysis was performed using two-way analysis of variance (ANOVA) with Prism 10.1.2 software (GraphPad Software). *: p<0.05 vs. untreated B cells; **: p<0.01 vs. untreated B cells; ns: non-significant.
In general terms: Flow cytometry measures light scatter and fluorescence of single cells or particles in a stream.

Data set [1] can be described thus: solution stability in 1-propanol:water (80:20% v/v) at 50° C. (Example 8). The class given is physicochemical. How it is done: Example 8-Solution Stability of Compound 1 di(hydrogen sulfate): As per Table 44, weighed amounts (mg) of Compound 1 (free base) were added to 5×1.5 mL screw cap vials. Sulfuric acid equivalents were added to each vial as solutions in volumes of 1-propanol: water (80:20% v/v) as further set forth in Table 44. Salt formation occurred in situ. The target free base concentration was about 186 mg/mL. The solutions were stirred at 50° C. for about 24 hours. […] Subsamples (50 μL) of the solutions were extracted for HPLC analysis after 2, 4, 6, and 23 hours of stirring at 50° C.

[2] abbreviates: 1-propanol:water (80:20% v/v), 50° C., Acid Equiv. 1.90.
Setting [3] is: 1-propanol:water (80:20% v/v), 50° C., Acid Equiv. 1.95.
[4] abbreviates: 1-propanol:water (80:20% v/v), 50° C., Acid Equiv. 2.00.
Where [5] appears, read: 1-propanol:water (80:20% v/v), 50° C., Acid Equiv. 2.05.
The mark [6] stands for this setting: 1-propanol:water (80:20% v/v), 50° C., Acid Equiv. 2.10.

Where a name gives a salt, the structure may show the parent alone.

Take `CCCN1CCNCCCNC(=O)c2cc(OC)c(OC)c(c2)OCCC[C@@H](OC(=O)c2cc(OC)c(OC)c(OC)c2)CC1`: the “decrease of ENT1 activity compared to untreated CD19 positive cells” value at ENT1 (1 μM of solutions stored at −20° C. for 6 months, whole blood from 3 healthy donors) worked out at 30.4%; on ENT1 (1 μM, freshly suspended, whole blood from 8 healthy donors), 43.9%.
As to `COc1cc(C(=O)O[C@@H]2CCCOc3cc(cc(OC)c3OC)C(=O)NCCCN3CCCN(CC2)CC3)cc(OC)c1OC` [Compound 1 di(hydrogen sulfate)], the “lowering of purity at the T23h timepoint versus earlier samples” value in data set [1] (1-propanol:water (80:20% v/v), 50° C.) is reported as “about 0.8 % area”. For the same molecule, the solution purity in data set [1] (1-propanol:water (80:20% v/v), 50° C., 2, 4, 6 and 23 hours) is reported as 98.7-99.7 % area. For the same molecule, in data set [1] (setting [2]), the “HPLC Conc. T2 h” value is 176 mg/mL, the “HPLC Conc. T4 h” value is on record as 167 mg/mL, the “HPLC Conc. T6 h” value amounted to 183 mg/mL and the “HPLC Conc. T23 h” value is on record as 164 mg/mL. Besides, in data set [1] (setting [2]), the “HPLC Purity T2 h” value amounted to 99.70 % area, the “HPLC Purity T4 h” value was 99.67 % area, the “HPLC Purity T6 h” value was determined as 99.58 % area and the “HPLC Purity T23 h” value is 98.94 % area. In addition, in data set [1] (setting [3]), the “HPLC Conc. T2 h” value is 175 mg/mL, the “HPLC Conc. T4 h” value amounted to 169 mg/mL, the “HPLC Conc. T6 h” value was determined as 179 mg/mL and the “HPLC Conc. T23 h” value was 162 mg/mL. Further, in data set [1] (setting [3]), the “HPLC Purity T2 h” value is recorded as 99.60 % area, the “HPLC Purity T4 h” value is 99.61 % area, the “HPLC Purity T6 h” value was 99.53 % area and the “HPLC Purity T23 h” value stood at 99.00 % area. In data set [1] (setting [4]), the “HPLC Conc. T2 h” value was determined as 170 mg/mL, the “HPLC Conc. T4 h” value stood at 165 mg/mL, the “HPLC Conc. T6 h” value is given as 169 mg/mL and the “HPLC Conc. T23 h” value amounted to 170 mg/mL. In addition, in data set [1] (setting [4]), the “HPLC Purity T2 h” value came out at 99.66 % area, the “HPLC Purity T4 h” value is given as 99.58 % area, the “HPLC Purity T6 h” value came to 99.43 % area and the “HPLC Purity T23 h” value is reported as 98.78 % area. In data set [1] (setting [5]), the “HPLC Conc. T2 h” value was determined as 166 mg/mL, the “HPLC Conc. T4 h” value is given as 165 mg/mL, the “HPLC Conc. T6 h” value came to 173 mg/mL and the “HPLC Conc. T23 h” value worked out at 165 mg/mL. For the same molecule, in data set [1] (setting [5]), the “HPLC Purity T2 h” value turned out to be 99.68 % area, the “HPLC Purity T4 h” value was 99.52 % area, the “HPLC Purity T6 h” value is on record as 99.42 % area and the “HPLC Purity T23 h” value is on record as 98.85 % area. Also, in data set [1] (setting [6]), the “HPLC Conc. T2 h” value amounted to 166 mg/mL, the “HPLC Conc. T4 h” value is on record as 164 mg/mL, the “HPLC Conc. T6 h” value was determined as 168 mg/mL and the “HPLC Conc. T23 h” value is 167 mg/mL. Moreover, in data set [1] (setting [6]), the “HPLC Purity T2 h” value turned out to be 99.60 % area, the “HPLC Purity T4 h” value worked out at 99.62 % area, the “HPLC Purity T6 h” value amounted to 99.47 % area and the “HPLC Purity T23 h” value is reported as 98.89 % area. Also, the overall solution stability result in data set [1] (1-propanol:water solvent system at 50° C.) is reported as “substantial stability”. The “concentration of the solutions by HPLC” value in data set [1] (input free base concentration 186 mg/mL, 50° C.) was in the range of 162 to 183 mg/mL.

(Values after US20240327415A1, “Multicomponent Complexes, Including Salts, Crystalline Forms, and Hydrates and Solvates of ENT1 Inhibitors” (iTeos Belgium SA, priority 2023, published 2024).)
